Experimental data taken from patent publication US20250092017A1, “2-PIPERIDYL OR 2-PYRAZOLYL SUBSTITUTED PYRIMIDINE COMPOUND SERVING AS EGFR INHIBITOR” (SUZHOU PUHE BIOPHARMA CO., LTD., priority 2022, published 2025).

Key:
Ba/F3-FL-EGFR = target: T1, Ba/F3-FL-EGFR (Homo sapiens, UniProt P00533); assay: CellTiter-Glo proliferation, Ba/F3-FL-EGFR; assay type: cell-based; details: 72 hours, read-out: Ba/F3-FL-EGFR IC50/nM
T1 construct: FL read as full length
Method in brief: (§1)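 Ba/F3 lines dependent on the indicated EGFR variants were treated with compounds at a final DMSO concentration of 0.1% at 37 °C, 5% CO2. Viability was read by CellTiter-Glo luminescence, and inhibition rate was normalised to DMSO-treated cells (max) and medium-only wells (min). IC50 came from inhibition curves.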

Ba/F3-FL-EGFR-L858R = Ba/F3-FL-EGFR-L858R (Homo sapiens, UniProt P00533, L858R, cells depend on it); assay: CellTiter-Glo proliferation, Ba/F3-FL-EGFR-L858R; assay type: cell-based; details: 72 hours, read-out: Ba/F3-FL-EGFR-L858R IC50/nM
Method in brief: as §1

[1] = target: T2, Ba/F3-TEL-EGFR-L858R-C797S (Homo sapiens, UniProt P00533, C797S/L858R, cells depend on it); assay: CellTiter-Glo proliferation, Ba/F3-TEL-EGFR-L858R-C797S; assay type: cell-based; details: 72 hours, read-out: Ba/F3-TEL-EGFR-L858R-C797S IC50/nM
T2 construct: fused on or other part: N-terminal TEL (ETV6) oligomerising part fused to the EGFR intracellular/kinase part; P41212 (Transcription factor ETV6)
Method in brief: as §1

[2] = target: Ba/F3-FL-EGFR-L858R-T790M-C797S (Homo sapiens, UniProt P00533, T790M/C797S/L858R, cells depend on it); assay: CellTiter-Glo proliferation, Ba/F3-FL-EGFR-L858R-T790M-C797S; assay type: cell-based; details: 72 hours, read-out: Ba/F3-FL-EGFR-L858R-T790M-C797S IC50/nM
Method in brief: as §1

[3] = test system: Ba/F3-FL-EGFR-del19-C797S; assay: CellTiter-Glo proliferation, Ba/F3-FL-EGFR-del19-C797S; assay type: cell-based; details: 72 h, proliferation, 72 hours, CellTiter-Glo; read-out: Ba/F3-FL-EGFR-del19-C797S IC50/nM
Method in brief: as §1

[4] = target: Ba/F3-FL-EGFR-del19-T790M-C797S (Homo sapiens, UniProt P00533, DEL746-750/T790M/C797S, cells depend on it); assay: CellTiter-Glo proliferation, Ba/F3-FL-EGFR-del19-T790M-C797S; assay type: cell-based; details: 72 hours, read-out: Ba/F3-FL-EGFR-del19-T790M-C797S IC50/nM
Procedure: Promega CellTiter-Glo reagent was used to detect the effects of small molecule inhibitors on the proliferation of three Ba/F3 cell lines (Ba/F3-FL-EGFR-de119, Ba/F3-FL-EGFR-de119-T790M, Ba/F3-FL-EGFR-de119-T790M-C797S).
The cell lines were cultured in an incubator at 37° C. and 5% CO2. Cells were passaged regularly and cells in the logarithmic phase were used for plating. 95 μL of cell suspension was added to each well of the cell plate, and culture medium without cells (containing 0.1% DMSO) was added to the Min control wells. Substance addition for compound detection cell plate: 5 μL of 20× compound working solution was added to the cell culture plate. 5 μL of DMSO-cell culture medium mixture was added to the Max control, with the final DMSO concentration of 0.1%. 5 μL of DMSO-cell culture medium mixture was added to the Max control. The final DMSO concentration was 0.1%.
Cell viability was detected by CellTiter-Glo luminescence assay. Data analysis:
The cell proliferation inhibition rate (Inhibition Rate) data was processed using the following formula: […]
wherein: RLUDrug represents the relative luminescence unit of the cells with the addition of drug, RLUMin represents the luminescence unit of the culture medium, and RLUMax represents the relative luminescence unit of the cells with the addition of DMSO.
The inhibition rates corresponding to different concentrations of compounds were calculated in EXCEL, and then the inhibition rate curve was plotted using GraphPad Prism software and related parameters including the maximum and minimum inhibition rates of cells and IC50 values were calculated.

[5] = Liver microsome stability test, human; assay type: in vitro ADME; details: human liver microsomes 0.5 mg/ml, compound 1 μM, NADPH 1 mM, within 60 minutes
Procedure: (§2) The compounds of the present disclosure were subjected to a liver microsome stability test. The compounds to be tested were co-incubated with liver microsomes of different species with or without the addition of NADPH. The final concentration of the compounds to be tested in the test system was 1 μM. The final concentration of NADPH was 1 mM, and the final concentration of liver microsomes was 0.5 mg/ml.

[6] = Liver microsome stability test, mouse; assay type: in vitro ADME; details: mouse liver microsomes 0.5 mg/ml, compound 1 μM, NADPH 1 mM, within 60 minutes
Procedure: as §2

[7] = test system: BaF3 (del19/T790M1C797S) tumor cells; assay: In vivo efficacy assay in BALB/c nude mice, subcutaneous BaF3 tumor; details: for TGI: based on final tumor volume
Procedure: In vivo efficacy assay in BALB/c nude mice. Details were as follows:
BaF3 (del19/T790M1C797S) tumor cells were cultured and inoculated into 6-8 weeks old female BALB/c nude mice (weighing about 20 g), with all mice being subcutaneously inoculated. The mice were cultured in an SPF-grade experimental environment, and all mice had free access to commercially certified standard diets. When the average tumor volume of the mice grew to about 150 mm^3, the test compound was orally administered daily. The dosage was as follows: blank group vehicle (DMSO/Solutol/H2O, 5/10/85). […] The tumor volume was measured three times a week with a two-dimensional caliper, and the animals were weighed every day. […] The volume calculation formula is: V=1/2a*b^2, where a represents the long diameter of the tumor, and b represents the short diameter of the tumor.

[8] = target: Ba/F3-FL-EGFR-Del19 (E746-A750) (Homo sapiens, UniProt P00533, DEL746-750, cells depend on it); assay: CellTiter-Glo proliferation, Ba/F3-FL-EGFR-Del19; details: read-out: Ba/F3-FL-EGFR-Del19 (E746-A750), 72 hours
[9] = target: Ba/F3-FL-EGFR-del19/T790M (Homo sapiens, UniProt P00533, DEL746-750/T790M, cells depend on it); assay: CellTiter-Glo proliferation, Ba/F3-FL-EGFR-del19/T790M; details: read-out: Ba/F3-FL-EGFR-del19/T790M IC50/nM, 72 hours
[10] = 100 mg/kg BID oral (50 mg/kg for the first 4 days, 100 mg/kg from the 5th day), after 13 days

Sequence of Ba/F3-FL-EGFR-del19-T790M-C797S (P00533 with tags, fused parts or gaps DEL746-750/T790M/C797S): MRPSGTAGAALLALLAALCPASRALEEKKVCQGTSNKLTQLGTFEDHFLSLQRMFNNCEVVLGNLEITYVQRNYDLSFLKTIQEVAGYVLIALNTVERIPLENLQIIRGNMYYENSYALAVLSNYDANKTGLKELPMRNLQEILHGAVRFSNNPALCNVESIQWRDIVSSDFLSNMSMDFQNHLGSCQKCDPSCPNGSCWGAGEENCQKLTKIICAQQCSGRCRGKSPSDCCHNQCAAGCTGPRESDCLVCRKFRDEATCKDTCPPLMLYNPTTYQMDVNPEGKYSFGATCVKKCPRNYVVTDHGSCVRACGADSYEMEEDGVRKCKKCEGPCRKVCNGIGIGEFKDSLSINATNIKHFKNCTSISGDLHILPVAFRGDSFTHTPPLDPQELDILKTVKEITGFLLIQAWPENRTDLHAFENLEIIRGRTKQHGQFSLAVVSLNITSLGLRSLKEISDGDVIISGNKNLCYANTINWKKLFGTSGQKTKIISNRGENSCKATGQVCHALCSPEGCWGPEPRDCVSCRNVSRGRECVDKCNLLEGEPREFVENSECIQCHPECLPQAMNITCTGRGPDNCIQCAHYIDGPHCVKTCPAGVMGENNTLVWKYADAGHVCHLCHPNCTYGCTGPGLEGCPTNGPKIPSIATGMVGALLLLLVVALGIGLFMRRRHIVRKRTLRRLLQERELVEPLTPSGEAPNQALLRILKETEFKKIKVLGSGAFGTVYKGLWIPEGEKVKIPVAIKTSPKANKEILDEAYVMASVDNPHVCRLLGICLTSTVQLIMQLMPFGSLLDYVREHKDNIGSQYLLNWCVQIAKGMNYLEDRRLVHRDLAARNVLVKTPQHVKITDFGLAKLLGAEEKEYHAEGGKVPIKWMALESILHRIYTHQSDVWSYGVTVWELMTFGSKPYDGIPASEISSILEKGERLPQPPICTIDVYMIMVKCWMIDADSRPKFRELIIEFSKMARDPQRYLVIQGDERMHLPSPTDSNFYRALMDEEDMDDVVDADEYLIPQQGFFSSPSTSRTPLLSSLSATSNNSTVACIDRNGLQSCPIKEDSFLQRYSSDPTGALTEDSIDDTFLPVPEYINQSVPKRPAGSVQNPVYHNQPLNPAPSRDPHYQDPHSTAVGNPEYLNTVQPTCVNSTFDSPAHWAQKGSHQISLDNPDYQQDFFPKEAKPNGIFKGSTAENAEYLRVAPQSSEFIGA
Sequence of Ba/F3-FL-EGFR-L858R (P00533 whole entry L858R): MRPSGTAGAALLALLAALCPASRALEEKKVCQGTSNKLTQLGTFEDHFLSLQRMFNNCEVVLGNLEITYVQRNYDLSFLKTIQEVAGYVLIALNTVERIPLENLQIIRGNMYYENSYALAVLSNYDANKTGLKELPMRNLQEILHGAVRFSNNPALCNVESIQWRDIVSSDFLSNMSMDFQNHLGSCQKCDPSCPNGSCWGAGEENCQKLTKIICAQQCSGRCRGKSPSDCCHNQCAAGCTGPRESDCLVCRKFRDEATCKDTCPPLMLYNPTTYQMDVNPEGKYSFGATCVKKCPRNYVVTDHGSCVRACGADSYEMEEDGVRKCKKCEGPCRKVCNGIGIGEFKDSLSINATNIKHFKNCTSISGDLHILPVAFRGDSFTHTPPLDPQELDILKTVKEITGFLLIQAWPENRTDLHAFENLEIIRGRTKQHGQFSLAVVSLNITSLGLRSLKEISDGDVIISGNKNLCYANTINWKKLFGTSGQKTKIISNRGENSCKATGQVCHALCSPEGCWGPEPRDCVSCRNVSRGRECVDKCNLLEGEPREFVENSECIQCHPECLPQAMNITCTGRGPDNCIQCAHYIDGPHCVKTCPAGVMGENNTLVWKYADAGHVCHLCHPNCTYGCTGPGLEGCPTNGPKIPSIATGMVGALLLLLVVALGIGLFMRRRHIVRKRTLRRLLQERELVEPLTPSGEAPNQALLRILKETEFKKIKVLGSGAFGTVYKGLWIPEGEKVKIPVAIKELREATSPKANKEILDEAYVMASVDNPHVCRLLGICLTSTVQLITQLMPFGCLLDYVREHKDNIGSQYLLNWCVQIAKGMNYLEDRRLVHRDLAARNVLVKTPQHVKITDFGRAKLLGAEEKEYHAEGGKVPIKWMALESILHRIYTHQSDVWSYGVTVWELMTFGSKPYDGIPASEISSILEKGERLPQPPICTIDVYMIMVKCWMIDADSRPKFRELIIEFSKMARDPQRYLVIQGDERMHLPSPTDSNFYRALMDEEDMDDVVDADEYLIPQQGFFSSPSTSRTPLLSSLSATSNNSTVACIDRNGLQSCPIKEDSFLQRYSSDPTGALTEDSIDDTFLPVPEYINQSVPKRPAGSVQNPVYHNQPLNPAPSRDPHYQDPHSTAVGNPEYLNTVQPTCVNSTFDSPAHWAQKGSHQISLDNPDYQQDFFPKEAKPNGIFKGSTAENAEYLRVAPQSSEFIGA
Sequence of Ba/F3-FL-EGFR-L858R-T790M-C797S (P00533 whole entry T790M/C797S/L858R): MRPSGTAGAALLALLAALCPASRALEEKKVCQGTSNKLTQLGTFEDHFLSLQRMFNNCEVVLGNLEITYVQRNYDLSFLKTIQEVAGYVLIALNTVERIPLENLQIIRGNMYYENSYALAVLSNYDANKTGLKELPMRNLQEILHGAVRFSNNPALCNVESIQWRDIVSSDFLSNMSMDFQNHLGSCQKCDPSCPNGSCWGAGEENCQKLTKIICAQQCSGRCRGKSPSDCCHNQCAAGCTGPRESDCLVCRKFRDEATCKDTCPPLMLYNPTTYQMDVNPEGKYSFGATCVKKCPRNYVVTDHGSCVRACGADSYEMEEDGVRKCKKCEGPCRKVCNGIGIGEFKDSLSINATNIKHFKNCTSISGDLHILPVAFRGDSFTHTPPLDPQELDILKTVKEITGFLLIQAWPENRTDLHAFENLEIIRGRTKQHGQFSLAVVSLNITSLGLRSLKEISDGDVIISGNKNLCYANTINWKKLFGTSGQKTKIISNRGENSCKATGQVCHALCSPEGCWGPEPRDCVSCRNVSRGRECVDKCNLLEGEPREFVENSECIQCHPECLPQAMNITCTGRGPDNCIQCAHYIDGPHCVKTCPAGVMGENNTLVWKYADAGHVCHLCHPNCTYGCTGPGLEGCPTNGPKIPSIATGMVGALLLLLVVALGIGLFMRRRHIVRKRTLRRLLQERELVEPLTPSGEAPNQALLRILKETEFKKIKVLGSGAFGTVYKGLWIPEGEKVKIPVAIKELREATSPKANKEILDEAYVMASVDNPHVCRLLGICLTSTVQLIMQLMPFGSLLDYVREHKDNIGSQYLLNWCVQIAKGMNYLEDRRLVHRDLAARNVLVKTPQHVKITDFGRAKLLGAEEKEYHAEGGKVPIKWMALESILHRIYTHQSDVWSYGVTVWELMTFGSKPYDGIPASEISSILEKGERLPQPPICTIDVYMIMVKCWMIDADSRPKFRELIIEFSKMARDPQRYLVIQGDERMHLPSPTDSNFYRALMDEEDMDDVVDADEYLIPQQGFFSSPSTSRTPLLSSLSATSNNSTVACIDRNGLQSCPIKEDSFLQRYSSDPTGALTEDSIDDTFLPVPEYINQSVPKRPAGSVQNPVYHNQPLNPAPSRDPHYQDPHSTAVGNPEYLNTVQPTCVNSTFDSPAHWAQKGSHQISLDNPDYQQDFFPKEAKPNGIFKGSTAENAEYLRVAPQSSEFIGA
T2 sequence (P00533 whole entry C797S/L858R, the tested form may be a part): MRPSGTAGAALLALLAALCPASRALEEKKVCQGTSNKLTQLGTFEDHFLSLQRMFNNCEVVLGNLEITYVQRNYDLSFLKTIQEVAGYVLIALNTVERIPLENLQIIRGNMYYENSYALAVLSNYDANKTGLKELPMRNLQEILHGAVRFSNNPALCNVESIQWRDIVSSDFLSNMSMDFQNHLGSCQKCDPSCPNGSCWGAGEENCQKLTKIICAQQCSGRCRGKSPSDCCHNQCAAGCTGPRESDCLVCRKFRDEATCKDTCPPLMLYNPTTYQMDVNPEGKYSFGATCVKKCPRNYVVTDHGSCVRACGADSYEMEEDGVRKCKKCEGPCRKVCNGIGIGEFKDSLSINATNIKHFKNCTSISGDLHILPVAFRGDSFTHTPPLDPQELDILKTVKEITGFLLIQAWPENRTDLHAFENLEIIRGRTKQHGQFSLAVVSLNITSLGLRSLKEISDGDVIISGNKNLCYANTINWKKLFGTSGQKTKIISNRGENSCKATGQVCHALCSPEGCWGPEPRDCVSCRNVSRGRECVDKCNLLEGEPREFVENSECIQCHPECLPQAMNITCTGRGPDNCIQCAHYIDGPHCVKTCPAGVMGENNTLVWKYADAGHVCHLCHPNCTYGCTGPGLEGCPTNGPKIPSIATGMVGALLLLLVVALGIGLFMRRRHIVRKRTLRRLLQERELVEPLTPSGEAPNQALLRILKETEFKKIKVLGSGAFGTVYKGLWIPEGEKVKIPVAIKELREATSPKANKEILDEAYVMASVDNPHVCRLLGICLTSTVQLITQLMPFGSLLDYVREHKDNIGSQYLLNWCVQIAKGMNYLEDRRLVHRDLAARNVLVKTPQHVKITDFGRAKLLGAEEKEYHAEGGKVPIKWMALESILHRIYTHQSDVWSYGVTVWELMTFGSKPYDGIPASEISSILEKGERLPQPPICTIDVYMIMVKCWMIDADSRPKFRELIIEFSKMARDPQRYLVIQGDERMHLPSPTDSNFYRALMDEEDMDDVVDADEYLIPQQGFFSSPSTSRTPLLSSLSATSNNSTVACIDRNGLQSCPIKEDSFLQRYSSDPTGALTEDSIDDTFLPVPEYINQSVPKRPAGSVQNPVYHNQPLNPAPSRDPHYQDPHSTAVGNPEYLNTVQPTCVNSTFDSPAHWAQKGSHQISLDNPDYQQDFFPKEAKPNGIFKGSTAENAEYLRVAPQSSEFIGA

GI50 (Ba/F3-FL-EGFR)	GI50 (Ba/F3-FL-EGFR-L858R)	GI50 [1]	GI50 [2]	IC50 [3]	GI50 [4]	CLint scaled at 1 μM [5]	CLint scaled at 1 μM [6]	GI50 [8]	GI50 [9]	Structure (SMILES)	Tumor volume (mm^3) [7, 10]	TGI [7, 10]	Tumor volume (mm^3) ([7]; 100 mg/kg, BID, oral, after 13 consecutive days of administration)	TGI ([7]; 100 mg/kg, BID, oral, after 13 consecutive days)
121 nM	3.7 nM	4.3 nM	10 nM	3.1 nM	3.1 nM	< 8.6 mL/min/kg	448 mL/min/kg	3.1 nM	0.3 nM	CC(C)c1ccc(N2C[C@H](N(C)S(C)(=O)=O)[C@H]2C)c2cnc(Nc3ccnc(-c4cnn(S(=O)(=O)C5CC5)c4)n3)cc12 [Compound H23]	28 mm^3	103%		
693 nM	22 nM	7.1 nM	4.6 nM	57 nM	5.9 nM			54 nM	3.2 nM	CC(C)c1ccc(N2C[C@H](N(C)S(C)(=O)=O)[C@H]2C)c2cnc(Nc3ccnc(N4CC[C@@H](O)[C@@H](F)C4)n3)cc12 [Compound P41a]			693 mm^3	85%
